Data on two compounds can be found in patent US11938208B2, “Antimicrobial mixture” (SYMRISE AG, priority 2019, dated 2024).

Assay [1] deals with E.coli (ATCC #8739). The assay is described as follows: Preservative efficacy test (challenge test) in an anionic emulsion of pH 5.8. In kind it is cell-based. As to conditions: for LR (log reduction), day 2 / LR (log reduction), day 7 / LR (log reduction), day 14 / LR (log reduction), day 21 / LR (log reduction), day 28: log 10 reduction vs initial inoculum; for surviving microorganisms (total aerobic plate count), day 2: day 2 after inoculation; for surviving microorganisms (total aerobic plate count), day 2 / surviving microorganisms (total aerobic plate count), day 7 / surviving microorganisms (total aerobic plate count), day 14 / surviving microorganisms (total aerobic plate count), day 21 / surviving microorganisms (total aerobic plate count), day 28: storage 22.5±2.5° C., TNTC = too numerous to count; for surviving microorganisms (total aerobic plate count), day 7: day 7 after inoculation; for surviving microorganisms (total aerobic plate count), day 14: day 14 after inoculation; for surviving microorganisms (total aerobic plate count), day 21: day 21 after inoculation; for surviving microorganisms (total aerobic plate count), day 28: day 28 after inoculation. On the procedure: This test is a reference method that is used to evaluate the preservative efficacy of a test formulation (in the present case an anionic emulsion of pH 5.8 comprising various fatty esters and fatty alcohols as oil bodies and glyceryl stearate citrate as the emulsifier. The formula was inoculated with known populations of microorganisms (0.2 ml of calibrated inoculums into 20 g of the test formulation) and the number of surviving microorganisms was calculated at defined intervals during a 28-day period. The inoculated test products were stored at 22.5±2.5° C. for the 28-day duration. The surviving microorganisms were enumerated via the total aerobic plate count method. For each time point, the log 10 reductions were calculated and were compared to the passing criteria.

Assay [2] deals with mold. Conditions: moist alfalfa hay; cited from earlier work.
The conditions of assay [3]: administered intraperitoneally; cited from earlier work.
The conditions of assay [4]: constituents of Tagetes mendocina; cited from earlier work.

Some results are limits rather than exact numbers.

For `CC(C)=CCC[C@](C)(O)[C@@H]1CC=C(C)CC1` [0.6% D100, Bisabolol], in assay [1], the “LR (log reduction), day 2” value is listed as “LR 0”; the “surviving microorganisms (total aerobic plate count), day 2” value is listed as “TNTC”; the “LR (log reduction), day 7” value is recorded as “LR 0”; the “surviving microorganisms (total aerobic plate count), day 7” value is “TNTC”. Also, in assay [1], the “LR (log reduction), day 14” value is “LR 0”; the “surviving microorganisms (total aerobic plate count), day 14” value was “TNTC”; the “LR (log reduction), day 21” value is “LR 0”; the “surviving microorganisms (total aerobic plate count), day 21” value (“surviving microorganisms … day 21” for short) is on record as “TNTC”. Further, in assay [1], the “LR (log reduction), day 28” value is “LR 0” and the “surviving microorganisms (total aerobic plate count), day 28” value (“surviving microorganisms … day 28” below) is “TNTC”.

On to `CC(=O)c1ccc(O)cc1` [0.25% SymSave H, 4-hydroxyacetophenone], for which the “prevention of mold growth” value in assay [2] is “not prevent mold growth”. Further, the “reduction of subcutaneous inflammation” value in assay [3] is on record as “reducing subcuteaneous inflammation”. Also, the antioxidant activity entry in assay [4] is given as “one of the active constituents”. Besides, in assay [1], the “LR (log reduction), day 2” value was “LR 0”; the “surviving microorganisms (total aerobic plate count), day 2” value is “TNTC”; the “LR (log reduction), day 7” value was “LR 0”; the “surviving microorganisms (total aerobic plate count), day 7” value was “TNTC”. Also, in assay [1], the “LR (log reduction), day 14” value is “LR 0”; the “surviving microorganisms (total aerobic plate count), day 14” value is listed as “TNTC”; the “LR (log reduction), day 21” value was “LR 3.94”; the “surviving microorganisms … day 21” value was 6.4 × 10^2. In addition, in assay [1], the “LR (log reduction), day 28” value is “LR 5.35” and the “surviving microorganisms … day 28” value was 2.5 × 10^1. Moreover, in assay [1] (listed as 0.35% SymSave H), the “LR (log reduction), day 14” value was “LR 2.49”; the “LR (log reduction), day 21” value was “LR 6”; the “surviving microorganisms … day 21” value was less than 10; the “LR (log reduction), day 28” value is recorded as “LR 6”. Also, the “surviving microorganisms … day 28” value in assay [1] (listed as 0.35% SymSave H) is recorded as less than 10.
